Measurements as given in US12398097B2, “WDR5-MYC inhibitors” (Vanderbilt University, priority 2019, dated 2025).

Each compound was assayed against WDR5 (Homo sapiens, UniProt P61964) (assay: Competition-based fluorescence polarization anisotropy assay). Conditions: binding to WDR5; displacement of FITC-labeled small molecule probe (analogous to Example J2 or HCH-25) or peptide probe FITC-AHx-SEEEIDVVSV; pH 6.0; Ki converted from IC50.
Procedure: Compounds of the present invention were assessed for their ability to bind to WDr5 using a competition-based fluorescence polarization anisotropy assay, similar to the method previously described. […] Fluorescence polarization measurements were performed in 384-well plates (Greiner Bio One) using a Cytation 3 plate reader (BioTek). Fluorescein isothiocyanate (FITC)-labeled peptide probe ([…]) was purchased from GenScript USA Inc and used without further purification. […] The assay buffer contained 200 mM phosphate, 300 mM NaCl, and 0.5 mM TCEP and 0.1% Chaps at pH 6.0. […] This was converted into a binding dissociation constant (Ki value) according to the formula: […] Data shown in the table below represents a K; determined from this method for each Example, using either a fluorescently labeled small molecule probe analogous to Example J2 or Example HCH-25, or the peptide probe described above, in the assay.

Row | Compound | Ki [µM]
1 | O=C(NCc1ccco1)c1cc(Cl)cc(NS(=O)(=O)c2cc(Br)ccc2O)c1O [Example J34, 3-((5-Bromo-2-hydroxyphenyl)sulfonamido)-5-chloro-N-(furan-2-ylmethyl)-2-hydroxybenzamide] | 0.32
2 | O=C(NCc1ccc(=O)[nH]c1)c1cc(Cl)cc(NS(=O)(=O)c2cc(Br)ccc2O)c1O [Example J35, 3-((5-Bromo-2-hydroxyphenyl)sulfonamido)-5-chloro-2-hydroxy-N-((6-oxo-1,6-dihydropyridin-3-yl)methyl)benzamide] | 0.23
3 | O=C(NCc1cc[nH]c(=O)c1)c1cc(Cl)cc(NS(=O)(=O)c2cc(Br)ccc2O)c1O [Example J36, 3-((5-Bromo-2-hydroxyphenyl)sulfonamido)-5-chloro-2-hydroxy-N-((2-oxo-1,2-dihydropyridin-4-yl)methyl)benzamide] | 0.24
4 | CN(CC1CCCO1)C(=O)c1cc(Cl)cc(NS(=O)(=O)c2cc(Br)ccc2O)c1O (stereo not drawn) [Example J37, 3-((5-Bromo-2-hydroxyphenyl)sulfonamido)-5-chloro-2-hydroxy-N-methyl-N-((tetrahydrofuran-2-yl)methyl)benzamide] | 3.78
5 | O=C(NC1CC(F)(F)C1)c1cc(Cl)cc(NS(=O)(=O)c2cc(Br)ccc2O)c1O [Example J38, 3-((5-Bromo-2-hydroxyphenyl)sulfonamido)-5-chloro-N-(3,3-difluorocyclobutyl)-2-hydroxybenzamide] | 0.4
6 | O=C(NCC(F)F)c1cc(Cl)cc(NS(=O)(=O)c2cc(Br)ccc2O)c1O [Example J39, 3-((5-Bromo-2-hydroxyphenyl)sulfonamido)-5-chloro-N-(2,2-difluoroethyl)-2-hydroxybenzamide] | 0.79
7 | CNC(=O)c1cc(Cl)cc(NS(=O)(=O)c2cc(Br)cc(Cl)c2O)c1O [Example J40, 3-((5-Bromo-3-chloro-2-hydroxyphenyl)sulfonamido)-5-chloro-2-hydroxy-N-methylbenzamide] | 0.24
8 | O=C(NCCO)c1cc(Cl)cc(NS(=O)(=O)c2cc(Br)cc(Cl)c2O)c1O [Example J41, 3-((5-Bromo-3-chloro-2-hydroxyphenyl)sulfonamido)-5-chloro-2-hydroxy-N-(2-hydroxyethyl)benzamide] | 2.48
9 | COCCNC(=O)c1cc(Cl)cc(NS(=O)(=O)c2cc(Br)cc(Cl)c2O)c1O [Example J42, 3-((5-Bromo-3-chloro-2-hydroxyphenyl)sulfonamido)-5-chloro-2-hydroxy-N-(2-methoxyethyl)benzamide] | 0.3
10 | COc1ccc(Br)cc1S(=O)(=O)Nc1cc(Cl)cc(C(N)=O)c1O [Example J43, 3-((5-Bromo-2-methoxyphenyl)sulfonamido)-5-chloro-2-hydroxybenzamide] | 1.15
11 | CNC(=O)c1cc(Cl)cc(NS(=O)(=O)c2cc(Br)ccc2OC)c1O [Example J44, 3-((5-Bromo-2-methoxyphenyl)sulfonamido)-5-chloro-2-hydroxy-N-methylbenzamide] | 1.26
12 | COCCNC(=O)c1cc(Cl)cc(NS(=O)(=O)c2cc(Br)ccc2OC)c1O [Example J45, 3-((5-Bromo-2-methoxyphenyl)sulfonamido)-5-chloro-2-hydroxy-N-(2-methoxyethyl)benzamide] | 0.99

Next, values leading:

Row | Ki [µM] | Compound
13 | 6.19 | COc1ccc(Br)cc1S(=O)(=O)Nc1cc(Cl)cc(C(=O)N2CCOCC2)c1O [Example J48, 5-Bromo-N-(5-chloro-2-hydroxy-3-(morpholine-4-carbonyl)phenyl)-2-methoxybenzenesulfonamide]
14 | 74.2 | COc1ccc(Br)cc1S(=O)(=O)Nc1cc(Cl)cc(C(=O)N(C)C)c1O [Example J50, 3-((5-Bromo-2-methoxyphenyl)sulfonamido)-5-chloro-2-hydroxy-N,N-dimethylbenzamide]
15 | 2.45 | COCCCNC(=O)c1cc(Cl)cc(NS(=O)(=O)c2cc(Br)ccc2OC)c1O [Example J51, 3-((5-Bromo-2-methoxyphenyl)sulfonamido)-5-chloro-2-hydroxy-N-(3-methoxypropyl)benzamide]
16 | 3.95 | COc1ccc(Br)cc1S(=O)(=O)Nc1cc(Cl)cc(C(=O)NC2CCOCC2)c1O [Example J52, 3-((5-Bromo-2-methoxyphenyl)sulfonamido)-5-chloro-2-hydroxy-N-(tetrahydro-2H-pyran-4-yl)benzamide]
17 | 2.07 | COc1ccc(Br)cc1S(=O)(=O)Nc1cc(Cl)cc(C(=O)NCCCO)c1O [Example J53, 3-((5-Bromo-2-methoxyphenyl)sulfonamido)-5-chloro-2-hydroxy-N-(3-hydroxypropyl)benzamide]
18 | 6.84 | COc1ccc(Br)cc1S(=O)(=O)Nc1cc(Cl)cc(C(=O)N2CCC[C@H]2CO)c1O [Example J54, (S)-5-Bromo-N-(5-chloro-2-hydroxy-3-(2-(hydroxymethyl)pyrrolidine-1-carbonyl)phenyl)-2-methoxybenzenesulfonamide]
19 | 8.17 | COc1ccc(Br)cc1S(=O)(=O)Nc1cc(Cl)cc(C(=O)N2CCC[C@@H]2CO)c1O [Example J55, (R)-5-Bromo-N-(5-chloro-2-hydroxy-3-(2-(hydroxymethyl)pyrrolidine-1-carbonyl)phenyl)-2-methoxybenzenesulfonamide]
20 | 4.64 | COC[C@@H]1CCCN1C(=O)c1cc(Cl)cc(NS(=O)(=O)c2cc(Br)ccc2OC)c1O [Example J56, (S)-5-Bromo-N-(5-chloro-2-hydroxy-3-(2-(methoxymethyl)pyrrolidine-1-carbonyl)phenyl)-2-methoxybenzenesulfonamide]
21 | 8.44 | COC[C@H]1CCCN1C(=O)c1cc(Cl)cc(NS(=O)(=O)c2cc(Br)ccc2OC)c1O [Example J57, (R)-5-Bromo-N-(5-chloro-2-hydroxy-3-(2-(methoxymethyl)pyrrolidine-1-carbonyl)phenyl)-2-methoxybenzenesulfonamide]
22 | 7.74 | COCCN(C)C(=O)c1cc(Cl)cc(NS(=O)(=O)c2cc(Br)ccc2OC)c1O [Example J58, 3-((5-Bromo-2-methoxyphenyl)sulfonamido)-5-chloro-2-hydroxy-N-(2-methoxyethyl)-N-methylbenzamide]
23 | 1.17 | COc1ccc(Br)cc1S(=O)(=O)Nc1cc(Cl)cc(C(=O)NCCO)c1O [Example J59, 3-((5-Bromo-2-methoxyphenyl)sulfonamido)-5-chloro-2-hydroxy-N-(2-hydroxyethyl)benzamide]
24 | 0.94 | COc1ccc(Br)cc1S(=O)(=O)Nc1cc(Cl)cc(C(=O)NC2CCOC2)c1O (stereo not drawn) [Example J60, 3-((5-Bromo-2-methoxyphenyl)sulfonamido)-5-chloro-2-hydroxy-N-(tetrahydrofuran-3-yl)benzamide]
25 | 2.68 | COc1ccc(Br)cc1S(=O)(=O)Nc1cc(Cl)cc(C(=O)NCCN)c1O [Example J61, N-(2-Aminoethyl)-3-((5-bromo-2-methoxyphenyl)sulfonamido)-5-chloro-2-hydroxybenzamide]
26 | 9.36 | COc1ccc(Br)cc1S(=O)(=O)Nc1cc(Cl)cc(C(=O)N2CC(OC)C2)c1O [Example J62, 5-Bromo-N-(5-chloro-2-hydroxy-3-(3-methoxyazetidine-1-carbonyl)phenyl)-2-methoxybenzenesulfonamide]
27 | 5.51 | COc1ccc(Br)cc1S(=O)(=O)Nc1cc(Cl)cc(C(=O)N2CC(O)C2)c1O [Example J63, 5-Bromo-N-(5-chloro-2-hydroxy-3-(3-hydroxyazetidine-1-carbonyl)phenyl)-2-methoxybenzenesulfonamide]
